Results taken from patent US20200085839A1, “COMBINATION OF IMMUNOTHERAPEUTICS AND BISFLUOROALKYL-1,4-BENZODIAZEPINONE COMPOUNDS FOR TREATING LYMPHOMAS” (Ayala Pharmaceuticals Inc., priority 2018, published 2020).
“Also recorded” adds a separate entry of the source. Read-outs that look alike come from different tables or passages of the source.

What was measured:
[1] = tested on: […] cell lines, comprising 9 subtypes of lymphomas; test: Soluble BCMA by ELISA, lymphoma cell line panel; format: cell-based, human
Protocol: (§1) […] cell lines, comprising 9 subtypes of lymphomas (see Table 1), were seeded at 1×10^5 cells/well in a total volume of 250 μl into a 96-well plate. The cells were cultured in RPMI medium supplemented with 10% FCS. Compound (22) was added to the cell cultures at a concentration of 10 μM, 1 μM, 100 nM, 10 nM, 1 nM, 100 pM, 10 pM, 1 pM, and 100 fM, and cell lines (8 from Hadassah Medical Center, 31 from Eurofins) were incubated at 37° C. for 24 hours with Compound (22). Following incubation, the cells were collected and BCMA levels were evaluated on the cell surface for cell-bound BCMA. Cells were stained with an anti-BCMA antibody (PE anti-human 19F2 BCMA, Biolegend), and cell surface BCMA levels were determined by FACS analysis (Mean Fluorescence Intensity. Soluble BCMA levels were analyzed by ELISA (Human BCMA/TNFRSF17 DuoSet kit: R&D Systems).

[2] = tested on: Raji cells (Burkitt's Lymphoma); test: Soluble (shed) BCMA by ELISA; format: cell-based, human
Protocol: as §1

[3] = tested on: SUDHL-4 (Eurofins) cells (DLBCL); printed SUDHL in Table 1; test: Cell surface BCMA by FACS; format: cell-based, human; settings: for EC50: Homo sapiens, SU-DHL-4
Protocol: as §1

[4] = tested on: Jeko-1 cells (Mantle Cell Lymphoma); test: Cell surface BCMA by FACS; format: cell-based, human; settings: for EC50: Homo sapiens
Protocol: as §1

HT cells (DLBCL) = test: Cell surface BCMA by FACS; format: cell-based, human; settings: for EC50: Homo sapiens
Protocol: as §1

[5] = tested on: MC-116 cells (B-cell Lymphoma); test: Cell surface BCMA by FACS; format: cell-based, human; settings: for EC50: Homo sapiens
Protocol: as §1

[6] = tested on: REC-1 cells (Mantle Cell Lymphoma); test: Cell surface BCMA by FACS; format: cell-based, human; settings: for EC50: Homo sapiens
Protocol: as §1

DOHH-2 cells (DLBCL) = test: Cell surface BCMA by FACS; format: cell-based, human; settings: for EC50: Homo sapiens
Protocol: as §1

[7] = tested on: Raji cells (Burkitt's Lymphoma); test: Cell surface BCMA by FACS; format: cell-based, human; settings: for EC50: Homo sapiens
Protocol: as §1

[8] = tested on: NU-DUL-1 cells (B-cell Lymphoma); test: Cell surface BCMA by FACS; format: cell-based, human; settings: for EC50: Homo sapiens
Protocol: as §1

[9] = tested on: TUR cells (Histiocytic Lymphoma); test: Cell surface BCMA by FACS; format: cell-based, human; settings: for EC50: Homo sapiens
Protocol: as §1

[10] = tested on: MHHH-PREB-1 cells (B-cell Lymphoma); test: Cell surface BCMA by FACS; format: cell-based, human; settings: for EC50: Homo sapiens, B-cell
Protocol: as §1

[11] = tested on: BC-1 cells (B-cell Lymphoma); test: Cell surface BCMA by FACS; format: cell-based, human; settings: for EC50: Homo sapiens
Protocol: as §1

[12] = tested on: EB-2 cells (Burkitt's Lymphoma); test: Cell surface BCMA by FACS; format: cell-based, human; settings: for EC50: Homo sapiens
Protocol: as §1

[13] = tested on: BCMA negative CD19 positive Raji Burkett lymphoma cell line; test: Lysis of BCMA negative cells by BCMA-CAR-T cells and/or Compound (1); format: cell-based, human; settings: combination with BCMA-CAR-T cells or each alone
[14] = tested on: RPMI-8226 human multiple myeloma cell line; test: Combination index (Chou and Talalay) of Compound (1) with BCMA-CAR-T; format: cell-based; settings: Compound (1) 10-80 nM with BCMA-CAR-T 10^9 cells
Protocol: (§2) Drug interaction analysis and the confirmation of synergism is determined by the method of Chou and Talalay. Linear regression analysis of dose-response data is performed using Calcusyn 1.2 software (Biosoft, Cambridge, United Kingdom) to calculate a combination index (CI) for each individual drug combination. To ensure valid statistical analysis, only experimental data for which the linear correlation coefficient of the median-effect plot was more than 0.9 are included. CI values are defined as: […]
(§3) The combination of Compound (1) with BCMA-CAR-T in models of human multiple myeloma in vitro lead to synergistic cell killing. Specifically, Compound (1) when used at concentrations between 10-80 nM (concentrations that are relevant in patients) in combination with BCMA-CAR-T at concentrations of 10^9 cells produce synergistic cell killing in the U266 and RPMI-8226 human multiple myeloma cell lines.

[15] = tested on: U266 human multiple myeloma cell line; test: as above; format: cell-based; settings: Compound (1) 10-80 nM with BCMA-CAR-T 10^9 cells
Protocol: as §2, §3

[16] = 24 h, read-out: BCMA (Mean Fluorescence Intensity) EC50

Cc1cccc2c1NC(=O)[C@@H](NC(=O)[C@H](CCC(F)(F)F)[C@H](CCC(F)(F)F)C(N)=O)N=C2c1cccc(F)c1 [Compound (22), (2R,3S)—N-((3S)-5-(3-fluorophenyl)-9-methyl-2-oxo-2,3-dihydro-1H-1,4-benzodiazepin-3-yl)-2,3-bis(3,3,3-trifluoropropyl)succinamide]
soluble BCMA ([1]; cell lines derived from Mantle Cell Lymphoma, DLBCL, Burkitt's Lymphoma, B-cell Lymphoma, 24 h): reduced soluble BCMA | shedding ([1]; certain lymphomas): abrogates shedding | BCMA shedding ([1]; lymphoma cells): decreases BCMA shedding from some lymphomas; also recorded: inhibits BCMA shedding | soluble BCMA ([1]; some Lymphoma/Leukemia cell lines): Compound (22) decreases soluble BCMA in some Lymphoma/Leukemia cell lines | Shed BCMA (pg/ml) % Reduction [2]: 99% | soluble BCMA 1 nM Compound (22) ([2]; 1 nM, 24 h): 81.4 | soluble BCMA 10 nM Compound (22) ([2]; 10 nM, 24 h): 29.7 | soluble BCMA 100 nM Compound (22) ([2]; 100 nM, 24 h): 26.3 | EC50 ([2]; Homo sapiens, read-out: Shed BCMA (pg/ml) EC50): 0.3 nM | EC50 ([3]; SUDHL-4 (Eurofins), read-out: mBCMA (MFI) EC50): 1.6 nM | EC50 ([3]; SUDHL, 24 h, read-out: BCMA (Mean Fluorescence Intensity) EC50): 1.6 nM | mBCMA (MFI) Fold Increase ([3]; SUDHL-4 (Eurofins)): 9.1 fold | BCMA (Mean Fluorescence Intensity) 1 nM Compound (22) ([3]; SUDHL, 1 nM, 24 h): 7568 | BCMA (Mean Fluorescence Intensity) 100 nM Compound (22) ([3]; SUDHL, 100 nM, 24 h): 20540 | EC50 ([4]; JeKo-1, read-out: mBCMA (MFI) EC50): 1.2 nM | EC50 ([4]; Jeko-1, 24 h, read-out: BCMA (Mean Fluorescence Intensity) EC50): 1.2 nM | mBCMA (MFI) Fold Increase ([4]; Jeko-1): 7.4 fold | BCMA (Mean Fluorescence Intensity) 1 nM Compound (22) ([4]; Jeko-1, 1 nM, 24 h): 1654 | BCMA (Mean Fluorescence Intensity) 100 nM Compound (22) ([4]; Jeko-1, 100 nM, 24 h): 2885 | mBCMA (MFI) Fold Increase (HT cells (DLBCL)): 3.2 fold | BCMA (Mean Fluorescence Intensity) 1 nM Compound (22) (HT cells (DLBCL); 1 nM, 24 h): 488 | BCMA (Mean Fluorescence Intensity) 100 nM Compound (22) (HT cells (DLBCL); 100 nM, 24 h): 895 | EC50 (HT cells (DLBCL); [16]): 2.3 nM | EC50 (HT cells (DLBCL); read-out: mBCMA (MFI) EC50): 2.3 nM | mBCMA (MFI) Fold Increase [5]: 4.2 fold | BCMA (Mean Fluorescence Intensity) 1 nM Compound (22) ([5]; 1 nM, 24 h): 915 | BCMA (Mean Fluorescence Intensity) 100 nM Compound (22) ([5]; 100 nM, 24 h): 1850 | EC50 ([5]; MC116, 24 h, read-out: BCMA (Mean Fluorescence Intensity) EC50): 1.9 nM | EC50 ([5]; MC116, read-out: mBCMA (MFI) EC50): 1.9 nM | mBCMA (MFI) Fold Increase [6]: 1.0 fold | BCMA (Mean Fluorescence Intensity) 1 nM Compound (22) ([6]; 1 nM, 24 h): 217 | BCMA (Mean Fluorescence Intensity) 100 nM Compound (22) ([6]; 100 nM, 24 h): 243 | EC50 ([6]; Rec1, 24 h, read-out: BCMA (Mean Fluorescence Intensity) EC50): > 10000 nM | EC50 ([6]; Rec1, read-out: mBCMA (MFI) EC50): > 10000 nM | mBCMA (MFI) Fold Increase (DOHH-2 cells (DLBCL)): 4.4 fold | BCMA (Mean Fluorescence Intensity) 1 nM Compound (22) (DOHH-2 cells (DLBCL); 1 nM, 24 h): 8033 | BCMA (Mean Fluorescence Intensity) 100 nM Compound (22) (DOHH-2 cells (DLBCL); 100 nM, 24 h): 12620 | EC50 (DOHH-2 cells (DLBCL); [16]): 0.87 nM | EC50 (DOHH-2 cells (DLBCL); read-out: mBCMA (MFI) EC50): 0.87 nM | mBCMA (MFI) Fold Increase [7]: 2.2 fold | BCMA (Mean Fluorescence Intensity) 1 nM Compound (22) ([7]; 1 nM, 24 h): 521 | BCMA (Mean Fluorescence Intensity) 100 nM Compound (22) ([7]; 100 nM, 24 h): 650 | EC50 [7, 16]: 1.1 nM | EC50 ([7]; read-out: mBCMA (MFI) EC50): 1.1 nM | mBCMA (MFI) Fold Increase [8]: 7.0 fold | BCMA (Mean Fluorescence Intensity) 1 nM Compound (22) ([8]; 1 nM, 24 h): 3892 | BCMA (Mean Fluorescence Intensity) 100 nM Compound (22) ([8]; 100 nM, 24 h): 4665 | EC50 [8, 16]: 0.61 nM | EC50 ([8]; read-out: mBCMA (MFI) EC50): 0.61 nM | mBCMA (MFI) Fold Increase [9]: 1.0 fold | BCMA (Mean Fluorescence Intensity) 1 nM Compound (22) ([9]; 1 nM, 24 h): 464 | BCMA (Mean Fluorescence Intensity) 100 nM Compound (22) ([9]; 100 nM, 24 h): 462 | EC50 [9, 16]: > 10000 nM | EC50 ([9]; read-out: mBCMA (MFI) EC50): > 10000 nM | mBCMA (MFI) Fold Increase [10]: 4.5 fold | BCMA (Mean Fluorescence Intensity) 1 nM Compound (22) ([10]; 1 nM, 24 h): 1363 | BCMA (Mean Fluorescence Intensity) 100 nM Compound (22) ([10]; 100 nM, 24 h): 1830 | EC50 [10, 16]: 1.7 nM | EC50 ([10]; read-out: mBCMA (MFI) EC50): 1.7 nM | mBCMA (MFI) Fold Increase [11]: 5.9 fold | BCMA (Mean Fluorescence Intensity) 1 nM Compound (22) ([11]; 1 nM, 24 h): 676 | BCMA (Mean Fluorescence Intensity) 100 nM Compound (22) ([11]; 100 nM, 24 h): 3694 | EC50 ([11]; BC1, 24 h, read-out: BCMA (Mean Fluorescence Intensity) EC50): 30.6 nM | EC50 ([11]; BC1, read-out: mBCMA (MFI) EC50): 30.6 nM | mBCMA (MFI) Fold Increase [12]: 5.4 fold | BCMA (Mean Fluorescence Intensity) 1 nM Compound (22) ([12]; 1 nM, 24 h): 18536 | BCMA (Mean Fluorescence Intensity) 100 nM Compound (22) ([12]; 100 nM, 24 h): 28188 | EC50 ([12]; EB2, 24 h, read-out: BCMA (Mean Fluorescence Intensity) EC50): 0.98 nM | EC50 ([12]; EB2, read-out: mBCMA (MFI) EC50): 0.98 nM

CN1C(=O)[C@@H](NC(=O)[C@H](CCC(F)(F)F)[C@H](CCC(F)(F)F)C(N)=O)N=C(c2ccccc2)c2ccccc21 [Compound 1, (2R,3S)—N-((3S)-1-methyl-2-oxo-5-phenyl-2,3-dihydro-1H-1,4-benzodiazepin-3-yl)-2,3-bis(3,3,3-trifluoropropyl)succinamide]
lysis of BCMA negative cells [13]: neither the BCMA-CAR-T cells and Compound (1) combination nor each alone lyses | cell killing, combination index (CI) class [14]: synergistic (0.3 < CI ≤ 0.9) | cell killing, combination index (CI) class [15]: synergistic (0.3 < CI ≤ 0.9)
